# Source: patent publication US20210290676A1, “IMPROVING THE EFFICACY AND SAFETY OF ADOPTIVE CELLULAR THERAPIES” (University of Southern California, priority 2018, published 2021)
# Tests used:
# Type in all cases: cell-based, human
# [1] = system: CD8+CD45RA+CCR7+CD62L+ T cells; experiment: Flow cytometry for CD8, CD45RA, CCR7 and CD62L on inhibitor-treated T cells; details: cells cultured for 14 days
# Protocol: (§1) DAY 0: Blood was obtained from unidentified donor. After RBC lysis, PBMC were collected using Ficoll-Hypaque separation. […] T cells were cultured in three different conditions: • 1. XVIVO 15 medium (Lonza) with IL2 50 IU/ml, CD3 antibody (30 ng/ml) and CD28 antibody (30 ng/ml). • 2. XVIVO 15 medium (Lonza) with CD3 antibody (30 ng/ml) and CD28 antibody (30 ng/ml). • 3. XVIVO 15 medium (Lonza) with IL2 50 IU/ml DAY 1: Cells were plated in a 6-well plate at a density of 1 million cells in 2 ml/of media (as described above) and treated with different inhibitors
# (§2) A second aliquot of the cells cultured for 13 days with all the treatments listed above (1-21) was washed with PBS+1% FBS, stained with CD8-PerCP, CD45RA-FITC, CCR7-PE and CD62L-APC (5% Y/100 μl/sample for each of 4 antibodies) at 4° C. for 1 h, washed twice with PBS+100 FBS and analyzed on flow cytometer to check if these drugs are enriching T stem cells showing surface expression of CD8+CD45RA+CCR7+CD62L+.
# (§3) Day 0: Blood was obtained from unidentified donor. After RBC lysis, PBMC were collected using Ficoll-Hypaque separation. 200 million T cells were isolated from PBMCs using CD3 microbeads. T cells were cultured overnight in XVIVO 15 medium (Lonza) with IL2 (50 IU/ml), 30 ng/ml of CD3 and CD28 antibodies
# (§4) Day 1: Cells were plated in 24-well plates at a density of 0.3 million cells/ml in each well and treated with different drugs.
# (§5) On day 7, culture medium was replaced with fresh medium with fresh drugs.
# (§6) On day 13, culture medium was replaced with fresh medium and fresh drugs. Half of the cells were transferred to 6-well plates.
# as §2, with “14” for “13”, “above” for “above (1-21)”, “(5 ul/100 ul/sample” for “(5% Y/100 μl/sample”, “PBS+1%” for “PBS+100”, “enriching for” for “enriching”, “T” for “T stem”
# [2] = system: CD45RA+CCR7+CD62L+ T cells; experiment: Flow cytometry for CD45RA, CCR7 and CD62L on inhibitor-treated T cells (all T cells); details: cells cultured for 14 days
# Protocol: as §1, §2, §3, §4, §5, §6
# as §2, with “14” for “13”, “above” for “above (1-21)”, “(5 ul/100 ul/sample” for “(5% Y/100 μl/sample”, “PBS+1%” for “PBS+100”, “enriching for” for “enriching”, “T” for “T stem”
# [3] = system: Pgp+ (DiOC2(3)-dye effluxing) T cells; experiment: DiOC2(3) dye efflux flow cytometry of inhibitor-treated T cells; details: treatment for 13 days, IL2 + CD3 and CD28 antibodies
# Protocol: (§7) The use of P-glycoprotein (Pgp)-mediated efflux of DiOC2(3) to isolate stem like T cells for adoptive cellular therapy has been described in application no. […] In the following examples, DiOC2(3) staining was used to study the effect of different inhibitors on generation of stem like T cells.
# as §1
# (§8) The cell growth medium was changed in 6-well plates and fresh drugs were added at same concentration for one more week.
# (§9) […] (DAY 11): Culture medium was changed and fresh drugs were added in 6-well plates.
# (§10) Subsequently, cells were washed with RPMI medium and dye was effluxed at 37° C. for 90 min. Cells were washed with […], stained with CD62L-APC (5 μl/100 μl/sample) at 4° C. for 1 h, washed twice with PBS+1% FBS and analyzed on flow cytometer to check if these drugs treatment leads to increase in Pgp+/CD62L positive population.
# as §3, §4, §5, §6
# (§11) Day 14: An aliquot of cells with all the treatments listed above (for 13 days) was used to stain the cells with DiOC2(3) (60 ng/ml in RPMI medium) at 4° C. for 40 min, washed with RPMI medium, DiOC2(3) dye was effluxed at 37° C. for 90 min, washed with PBS+1% FBS, stained with CD62L-APC antibody. CD62L is a marker for resting T cells. (5 μl/100 μl/sample) at 4° C. for 1 h, washed twice with PBS+1% FBS and analyzed on flow cytometer to check if these drugs are affecting the dye-effluxing or Pgp+ (i.e., DiOC2(3)-dull) T-cell population.
# [4] = system: Pgp+ (DiOC2(3)-dye effluxing cells) and CD62L+ T cells; experiment: DiOC2(3) dye efflux plus CD62L-APC staining, flow cytometry of inhibitor-treated T cells; details: treatment for 13 days, IL2 + CD3 and CD28 antibodies
# Protocol: as §7, §1, §8, §9, §10, §3, §4, §5, §6, §11
Compound,"GATE P4 CD8(PerCP)+, CD45RA(FITC)+, CCR7 (PE)+, CD62L(APC) ([1]; 100 nM) [%]","GATE P4 CD8(PerCP)+, CD45RA(FITC)+, CCR7 (PE)+, CD62L(APC) ([1]; 500 nM) [%]","GATE P6 CD45RA(FITC)+, CCR7 (PE)+, CD62L(APC) ([2]; 100 nM) [%]","GATE P6 CD45RA(FITC)+, CCR7 (PE)+, CD62L(APC) ([2]; 500 nM) [%]",p2: pgp+ from Live cells ([3]; 100 nM),p2: pgp+ from Live cells ([3]; 500 nM),p5: double +ve pgp+ and CD62L-APC+ from Live cells ([4]; 100 nM),p5: double +ve pgp+ and CD62L-APC+ from Live cells ([4]; 500 nM)
CCCc1cc(C)[nH]c(=O)c1CNC(=O)c1cc(-c2ccc(N3CCN(C(C)C)CC3)nc2)cc2c1cnn2C(C)C [UNC1999],71.75,74.57,59.08,60.97,36.8,31.14,11.06,8.9
BI7273,70.33,77.81,57.15,61.86,16.69,16.34,2.73,2.38
